Reference: the NIST ThermoML archive (doi:10.1021/acs.jced.6b00168)
Where “and” joins values, the source holds several entries; their conditions need not be identical. Equal entries are not always repeated.

Columns and labels:
[1] = mn = molality of the nth substance listed, in mol/kg; details: 100 kPa, Liquid; for speed of sound: Frequency=3 MHz, Sing-around technique in a fixed-path interferometer; for mass density: Vibrating tube method
[2] = 298.15 K; 100 kPa; Liquid; Frequency=3 MHz; Sing-around technique in a fixed-path interferometer

O=C(N[C@H](CO)[C@H](O)c1ccc([N+](=O)[O-])cc1)C(Cl)Cl + O
[1]
Details	mass density, 288.15 K [kg/m3]	mass density, 298.15 K [kg/m3]	mass density, 308.15 K [kg/m3]	mass density, 318.15 K [kg/m3]	speed of sound, 288.15 K [m/s]	speed of sound, 298.15 K [m/s]	speed of sound, 308.15 K [m/s]	speed of sound, 318.15 K
m1 = 0.0005	999.273	997.209	994.205	990.372	1466.9	1496	1519.6	1536.2 m/s
m1 = 0.001	999.429	997.363	994.356	990.522	1467	1496.1	1519.7	1536.4 m/s
m1 = 0.002	999.643	997.576	994.56	990.713	1467.1	1496.2	1519.9	1536.8 m/s and 1536.5 m/s
m1 = 0.004	999.922	997.847	994.831	990.992	1467.5	1496.7	1520.2	1536.8 m/s

O [water]
Details	speed of sound [m/s]
[2]	1495.9
